Here are results for 27 compounds from ChEMBL document CHEMBL1129084, “Structure-activity relationships for macrocyclic peptidomimetic inhibitors of HIV-1 protease” (Bioorg Med Chem Lett, 1996).

Each structure is given as a SMILES string. Starred links: 1 amine or outer side, 2 acyl side, 3 side chain; linkers in the order of their positions; H or OH if unused. Non-standard residues stand in square brackets, D forms with d. Residues, ends and D or L forms follow the SMILES beside them. Phe(ψ(S)CH(OH)CH2N)Pro = O=C([C@@H]1CCCN1C[C@H](O)[C@H](Cc1ccccc1)N[*:1])[*:2]; Pheψ(R-CH(OH)CH2N)Pro = O=C([C@@H]1CCCN1C[C@@H](O)[C@H](Cc1ccccc1)N[*:1])[*:2]

The assay has as its target Human immunodeficiency virus type 1 protease (Human immunodeficiency virus 1, UniProt Q72874).

Turning to `CC[C@@H](C)[C@@H]1NC(=O)[C@@H](NC[C@@H](O)[C@@H]2Cc3ccc(cc3)OCCCCC(=O)N[C@@H](C(C)C)C(=O)N2)Cc2ccc(cc2)OCCCNC1=O`, the affinity corresponds to a Ki of 3 nM. In the case of `CC[C@H](C)[C@H](NC(=O)[C@@H]1CCCN1C[C@@H](O)[C@H]1Cc2ccc(cc2)OCC(=O)NCC(=O)N[C@@H](CC(N)=O)C(=O)N1)C(=O)N[C@H](C(N)=O)C(C)C` it was 200 nM.

`CC[C@H](C)[C@H](NC(=O)[C@@H]1CCCN1C[C@H](O)[C@H]1Cc2ccc(cc2)OCC(=O)N[C@@H](Cc2ccc(O)cc2)C(=O)N[C@@H](CC(N)=O)C(=O)N1)C(=O)N[C@H](C(N)=O)C(C)C` had a Ki of 11 nM.

Consider `CC[C@H](C)[C@H](NC(=O)[C@@H]1CCCN1C[C@H](O)[C@H]1Cc2ccc(cc2)OCC(=O)NCC(=O)N[C@@H](CC(N)=O)C(=O)N1)C(=O)N[C@H](C(N)=O)C(C)C`, for which the inhibitory constant (Ki) amounted to 11 nM. In the case of `CC[C@H](C)[C@H](NC(=O)[C@@H]1CCCN1C[C@@H](O)[C@H]1Cc2ccc(cc2)OCC(=O)N[C@@H](Cc2ccc(O)cc2)C(=O)N[C@@H](CC(N)=O)C(=O)N1)C(=O)N[C@H](C(N)=O)C(C)C` it was 165 nM; in that of `CC[C@H](C)[C@H](NC(=O)[C@@H]1CCCN1C[C@H](O)[C@@H]1CSSC[C@@H](NC(C)=O)C(=O)NCC(=O)N[C@@H](CC(N)=O)C(=O)N1)C(=O)N[C@H](C(N)=O)C(C)C`, 250 nM. For `CC[C@H](C)[C@H](NC(=O)[C@@H]1CCCN1C[C@@H](O)[C@@H]1CSSC[C@@H](NC(C)=O)C(=O)NCC(=O)N[C@@H](CC(N)=O)C(=O)N1)C(=O)N[C@H](C(N)=O)C(C)C`, the Ki came to 36000 nM. In the case of `CC[C@H](C)[C@H](NC(=O)[C@@H]1CCCN1C[C@H](O)[C@H]1Cc2ccc(cc2)OCCCCC(=O)NC(CC(N)=O)C(=O)N1)C(=O)N[C@H](C(N)=O)C(C)C` (some centres not stated) it was 8 nM. In the case of `CC[C@H](C)[C@H](NC(=O)[C@@H]1CCCN1C[C@@H](O)[C@H]1Cc2ccc(cc2)OCCCCC(=O)NC(CC(N)=O)C(=O)N1)C(=O)N[C@H](C(N)=O)C(C)C` (some centres not stated) it was 74 nM; in that of `CC[C@H](C)[C@H](NC(=O)[C@@H]1CCCN1C[C@@H](O)[C@H]1Cc2ccc(cc2)OCCCC(=O)NC(CC(N)=O)C(=O)N1)C(N)=O` (some centres not stated), 2800 nM; in that of `CC[C@H](C)[C@H](NC(=O)[C@@H]1CCCN1C[C@H](O)[C@H]1Cc2ccc(cc2)OCCCC(=O)NC(CC(N)=O)C(=O)N1)C(N)=O` (some centres not stated), 250 nM. In the case of `CC(C)[C@@H]1NC(=O)CCCCCOc2ccc(cc2)C[C@H]([C@H](O)CN2CCCC[C@H]2C(=O)NC(C)(C)C)NC1=O` it was 50 nM; in that of `CC(C)N(C(=O)[C@@H]1CCCN1C[C@@H](O)[C@H]1Cc2ccc(cc2)OCCCC(=O)NC(CC(N)=O)C(=O)N1)C(C)C` (some centres not stated), 31000 nM; in that of `CC(C)(C)NC(=O)[C@@H]1CCCN1C[C@H](O)[C@H]1Cc2ccc(cc2)OCCCC(=O)NC(CC(N)=O)C(=O)N1` (some centres not stated), 145 nM. Turning to `CC(C)(C)NC(=O)[C@@H]1CCCN1C[C@@H](O)[C@H]1Cc2ccc(cc2)OCCCC(=O)NC(CC(N)=O)C(=O)N1` (some centres not stated), the inhibition constant (Ki) amounted to 57 nM. Take `CC(C)CN(CC(=O)NC(C)(C)C)C[C@@H](O)[C@H]1Cc2ccc(cc2)OCCCC(=O)N[C@@H](CC(N)=O)C(=O)N1`: the inhibition constant Ki was determined as 250 nM.

For `CC(C)(C)NC(=O)CN(Cc1ccccc1)C[C@@H](O)[C@H]1Cc2ccc(cc2)OCCCC(=O)N[C@@H](CC(N)=O)C(=O)N1`, the affinity corresponds to a Ki of 440 nM. For `CC(C)(C)NC(=O)CN(Cc1ccccc1)C[C@H](O)[C@H]1Cc2ccc(cc2)OCCCC(=O)N[C@@H](CC(N)=O)C(=O)N1`, affinity was put at a Ki of 13600 nM. Compared with the last compound, the Ki is about 31-fold higher. In the case of `NC(=O)CC1NC(=O)CCCOc2ccc(cc2)C[C@H]([C@H](O)CN2CCC[C@H]2C(N)=O)NC1=O` (some centres not stated) it was 16000 nM; in that of `NC(=O)CC1NC(=O)CCCOc2ccc(cc2)C[C@H]([C@@H](O)CN2CCC[C@H]2C(N)=O)NC1=O` (some centres not stated), 36000 nM; in that of `CC(C)N(C(=O)[C@@H]1CCCN1C[C@H](O)[C@H]1Cc2ccc(cc2)OCCCC(=O)NC(CC(N)=O)C(=O)N1)C(C)C` (some centres not stated), 86000 nM. In the case of `CC(C)CN(CC(=O)NC(C)(C)C)C[C@H](O)[C@H]1Cc2ccc(cc2)OCCCC(=O)N[C@@H](CC(N)=O)C(=O)N1` it was 380 nM. In turn, `CC(C)[C@@H]1NC(=O)CCCCOc2ccc(cc2)C[C@H]([C@H](O)CN2CCCC[C@H]2C(=O)NC(C)(C)C)NC1=O` displayed a Ki of 17 nM.

The compound `CC[C@H](C)[C@H](NC(=O)[C@@H]1CCCN1C[C@H](O)[C@H](Cc1ccccc1)NC(=O)[C@H](CC(N)=O)NC(=O)[C@H](CC(C)C)NC(C)=O)C(=O)N[C@H](C(N)=O)C(C)C` (Ac-LN[Phe(ψ(S)CH(OH)CH2N)Pro]IV-NH2) gave a Ki of 3 nM. In the case of `CC[C@H](C)[C@H](NC(=O)[C@@H]1CCCN1C[C@@H](O)[C@H](Cc1ccccc1)NC(=O)[C@H](CC(N)=O)NC(=O)[C@H](CC(C)C)NC(C)=O)C(=O)N[C@H](C(N)=O)C(C)C` (Ac-LN[Pheψ(R-CH(OH)CH2N)Pro]IV-NH2), the Ki came to 18 nM.

On to `CC[C@H](C)[C@H](NC(=O)[C@@H]1CCCN1CC(O)[C@H]1Cc2ccc(cc2)OCC(=O)N[C@H](CCC(N)=O)C(=O)N[C@@H](CC(N)=O)C(=O)N1)C(=O)N[C@H](C(N)=O)C(C)C` (mixture of isomers), for which the Ki worked out at 4 nM. In the case of `CC(C)(C)NC(=O)[C@H](Cc1ccccc1)NCC(O)[C@@H]1Cc2ccc(cc2)OCCCC(=O)NC(CC(N)=O)C(=O)N1` (mixture of isomers) it was 10300 nM.

What is called Ki is a dissociation constant, usually derived from enzyme kinetics or from competition with a known ligand. Low values mean higher affinity, high ones lower affinity.
